Assay results taken from patent US20240116856A1 (Young BioPharma, LLC, priority 2020, published 2024).
Several values for one entry are separate records, joined by “and”; a condition that tells them apart may be missing. Identical values can stand only once. Entries after “also recorded” stand apart in the source; their conditions may differ. Like-named read-outs stand apart in the source and are kept apart here.

Key:
Mouse plasma stability = conditions: C57BL6 mouse plasma; 2 μM (YB-2), 5 μM (controls)
TRPV1 [1] = target: TRPV1 (Rattus norvegicus, UniProt O35433); conditions: read-out: EC50 in Ca2+ influx assay, cited from earlier work
[2] = literature; cited from earlier work
OVCAR-8 cell invasion = assay: Cancer cell invasion assay, OVCAR-8; type: cell-based, human
Procedure: (§1) A cancer cell invasion assay was developed based on literature protocols (Methods 2005, 37, 208; EMBO J 2002, 21, 6289; Cellular Signalling 2012, 24, 1276.). Membrane matrix gel (Cat #A1413201, ThermoFisher) was diluted in ice-cold, serum-free RPMI 1640 Medium (Cat #31800022, ThermoFisher) at a concentration of 0.5-0.6 mg/mL. Then it was added to the upper compartment (100 μL per cup) of millicell inserts (Cat #PI8P01250, ThermoFisher) placed in a 24-well plate (Part no. 229123, Celltreat). The plate was incubated at 37° C. for 2 h to allow the liquid gel to solidify. RPMI 1640 Medium supplemented with 10% FBS (300 μL) was added to the well of the plate (lower compartment) as attractant, then DMSO or compounds were added. Human cancer cells (1×10^5 cells in 200 μL of RPMI 1640 Medium) were added to the upper compartment of the insert, then DMSO or compounds were added. After the plate was incubated at 37° C. for 24 h, the cells were fixed on the lower side of the insert membrane with 4% formaldehyde and stained with 1% crystal violet (Part no. IS12146, Innovating Science). The invaded cells on the lower side of the filter were counted under an inverted microscope equipped with either a 4× or a 10× objective (FIG. 11). The cell numbers from 5 random views were averaged and plotted as percentage against the DMSO control (FIG. 12A).

NCI-H460 = assay: Human cancer cell growth inhibition assay (ATP assay), NCI-H460; type: cell-based; conditions: for IC50: Homo sapiens, NCI-H460, 96 h, 4 days, Means±SEM from three independent experiments, read-out: NCl-H460, IC50
[3] = tested on: Src protein activation in OVCAR-8 cells; assay: Cancer cell immunocytochemistry assay, Phospho-Src (Y416), OVCAR-8; type: cell-based, human
Procedure: (§2) Human cancer cells (15,000 cells/well) in 96 well half area microplate (Cat #3882, Corning) were incubated overnight at 37° C., then compounds or DMSO control were added to the cell culture and incubated at 37° C. for 1-6 h. The cells were sequentially fixed with 4% formalin, permeabilized with 0.5% Triton X-100, blocked with 5% BSA in PBS, incubated with Human Phospho-Src (Y416) Antibody (Cat #MAB2685, R&D Systems) at rt for 2 h, incubated with the secondary antibody Goat Ant-Rabbit IgG H&L (Alexa Fluor 488) (Cat #ab150077, abeam) for 45 min, and incubated with DAPI (Cat #D9542, Sigma-Aldrich) for 5 min. Finally, the cells were washed and covered with PBS. The cell images were visualized on an inverted fluorescence microscope (Leica DMIL Fluorescent Inverted Microscope with Digital Camera, Leica Microsystems). Pictures were taken [FIGS. 14A-C. Green: Human Phospho-Src (Y416), the activated form of the Src protein; Blue: DAPI (stain nucleus of cell)]. The fluorescence intensity values from 5 random cells were averaged, subtracted by the background value (area between cells) and the blank value [the blank control without the Human Phospho-Src (Y416) Antibody], then plotted as percentage against the DMSO control to indicate the effects of compound treatment on the cellular Src kinase phosphorylation levels in the cancer cells (FIGS. 15A-D).

MDA-MB-231 cell invasion = assay: Cancer cell invasion assay, MDA-MB-231; type: cell-based, human; conditions: for inhibition of MDA-MB-231 cell invasion: 24 h
Procedure: as §1

[4] = tested on: Src protein activation in NCI-H460 cells; assay: Cancer cell immunocytochemistry assay, Phospho-Src (Y416), NCI-H460; type: cell-based, human
Procedure: as §2

[5] = tested on: Src protein activation in MDA-MB-231 cells; assay: Cancer cell immunocytochemistry assay, Phospho-Src (Y416), MDA-MB-231; type: cell-based, human
Procedure: as §2

human TRPV3 = target: T1, human TRPV3 (Homo sapiens, UniProt Q8NET8); assay: In vitro Ca2+ flux counter-screen in human TRPV3 overexpressing cells; type: cell-based; conditions: counter-screen; read-out: TRPV3 EC50
T1 construct: expressed in transfected cells; host or cells: overexpressing cells
T1 sequence (Q8NET8 1-790): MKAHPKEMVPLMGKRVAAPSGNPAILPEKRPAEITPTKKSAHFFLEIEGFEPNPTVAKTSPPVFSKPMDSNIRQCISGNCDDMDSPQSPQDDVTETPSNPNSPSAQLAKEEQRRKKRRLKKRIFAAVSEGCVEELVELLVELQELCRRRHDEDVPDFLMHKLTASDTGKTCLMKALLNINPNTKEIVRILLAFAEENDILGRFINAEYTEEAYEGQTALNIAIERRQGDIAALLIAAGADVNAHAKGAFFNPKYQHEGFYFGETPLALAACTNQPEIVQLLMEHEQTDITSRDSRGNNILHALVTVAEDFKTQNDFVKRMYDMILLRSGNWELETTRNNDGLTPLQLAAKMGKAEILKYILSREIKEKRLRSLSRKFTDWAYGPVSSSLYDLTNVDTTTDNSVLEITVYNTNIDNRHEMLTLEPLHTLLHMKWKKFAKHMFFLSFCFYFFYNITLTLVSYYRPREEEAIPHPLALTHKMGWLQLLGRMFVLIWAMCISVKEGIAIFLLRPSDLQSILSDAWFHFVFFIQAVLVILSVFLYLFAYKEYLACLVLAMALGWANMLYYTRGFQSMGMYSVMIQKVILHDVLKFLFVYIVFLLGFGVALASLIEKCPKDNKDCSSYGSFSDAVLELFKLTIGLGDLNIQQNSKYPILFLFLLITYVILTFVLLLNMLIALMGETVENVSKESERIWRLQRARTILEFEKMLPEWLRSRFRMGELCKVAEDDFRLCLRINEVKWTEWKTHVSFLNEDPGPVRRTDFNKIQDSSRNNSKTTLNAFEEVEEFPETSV

NCI-H460 cell invasion = assay: Cancer cell invasion assay, NCI-H460; type: cell-based, human; conditions: for inhibition of NCI-H460 cell invasion: 24 h
Procedure: as §1

human TRPA1 = target: T2, human TRPA1 (Homo sapiens, UniProt O75762); assay: In vitro Ca2+ flux counter-screen in human TRPA1 overexpressing cells; type: cell-based; conditions: counter-screen; read-out: TRPA1 EC50
T2 construct: expressed in transfected cells; host or cells: overexpressing cells

OVCAR-8 ovarian tumor = assay: OVCAR-8 intraperitoneal xenograft in athymic nude mice; type: in vivo
Procedure: OVCAR-8 cells expressing red fluorescent protein were xenografted intraperitoneally in athymic nude mice to form tumors (Mol Cancer Ther 2020, 19, 89). After 4 weeks, mice were dosed with YB-1 or vehicle control (10% N-Methylpyrrolidone-72% PEG400—18% water) for 2 weeks (dosage: 5 mg/kg; ip treatment twice per week). As shown in FIGS. 16A-B, compared to vehicle group, animals treated with YB-1 for 2 weeks had 40% less tumor burden based on average radiant efficiency measured with IVIS and reduced approximately half of the body weight loss (7% average body weight loss for YB-1 treatment group vs. 13% average body weight loss for vehicle group).

MDA-MB-231 = assay: Human cancer cell growth inhibition assay (ATP assay), MDA-MB-231; type: cell-based; conditions: for IC50: Homo sapiens, MDA-MB-231, 96 h, 4 days, Means±SEM from three independent experiments, read-out: MDA-MB-231, IC50
OVCAR-8 = assay: Human cancer cell growth inhibition assay (ATP assay), OVCAR-8; type: cell-based; conditions: for IC50: Homo sapiens, OVCAR-8, 96 h, 4 days, Means±SEM from three independent experiments, read-out: OVCAR-8, IC50
TRPV1 [6] = target: T3, TRPV1 (Mus musculus, UniProt Q704Y3); assay: Ca2+ imaging of primary mouse dorsal root ganglion (DRG) neurons, TRPV1 desensitization; type: cell-based; conditions: then capsaicin 0.5 μM
T3 construct: DRG was isolated from male and female mice expressing GCaMP6f in neurons; endogenous in cells; host or cells: dissociated primary DRG neurons from GCaMP6f-expressing mice

[7] = both, mouse, in vivo, 1 min
[8] = intraplantar
human TRPV1 = target: T4, human TRPV1 (Homo sapiens, UniProt Q8NER1); assay: In vitro Ca2+ flux assay in human TRPV1 transfected HEK 293 cells; type: cell-based; conditions: Means±SEM from three independent experiments; read-out: TRPV1 EC50
T4 construct: DYK (FLAG) tag from vector pcDNA3.1+/C-(K)DYK (C); host or cells: FreeStyle 293-F cells (HEK 293), transient transfection

[9] = YB-1 15 μM, capsaicin 50 μM, 1-6 h
[10] = 5 mg/kg ip twice per week for 2 weeks
[11] = first treatment capsaicin 0.5 μM, YB-11 0.5 μM or YB-16 1.0 μM, paired t-test

T4 sequence (Q8NER1 whole entry): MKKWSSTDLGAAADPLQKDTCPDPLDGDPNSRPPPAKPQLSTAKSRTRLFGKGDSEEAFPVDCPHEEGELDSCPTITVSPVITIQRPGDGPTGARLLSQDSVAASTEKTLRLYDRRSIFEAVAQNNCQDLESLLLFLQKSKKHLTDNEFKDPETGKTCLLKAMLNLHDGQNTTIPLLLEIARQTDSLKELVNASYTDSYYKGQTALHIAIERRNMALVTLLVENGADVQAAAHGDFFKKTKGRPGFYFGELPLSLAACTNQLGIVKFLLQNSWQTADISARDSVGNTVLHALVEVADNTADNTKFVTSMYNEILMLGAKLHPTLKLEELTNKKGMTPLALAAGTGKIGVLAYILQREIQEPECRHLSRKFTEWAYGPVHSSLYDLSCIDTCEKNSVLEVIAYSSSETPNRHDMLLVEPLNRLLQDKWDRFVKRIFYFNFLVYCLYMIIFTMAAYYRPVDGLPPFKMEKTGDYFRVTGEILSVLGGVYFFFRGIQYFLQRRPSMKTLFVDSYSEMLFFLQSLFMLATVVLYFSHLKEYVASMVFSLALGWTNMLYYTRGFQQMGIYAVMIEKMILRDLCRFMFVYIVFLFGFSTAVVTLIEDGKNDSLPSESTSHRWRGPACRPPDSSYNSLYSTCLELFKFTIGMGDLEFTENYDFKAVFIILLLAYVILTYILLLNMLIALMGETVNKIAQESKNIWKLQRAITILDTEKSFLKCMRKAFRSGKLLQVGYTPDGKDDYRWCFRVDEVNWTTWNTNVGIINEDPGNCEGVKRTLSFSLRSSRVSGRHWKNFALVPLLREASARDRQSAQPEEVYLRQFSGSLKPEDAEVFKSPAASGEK
T2 sequence (O75762 whole entry): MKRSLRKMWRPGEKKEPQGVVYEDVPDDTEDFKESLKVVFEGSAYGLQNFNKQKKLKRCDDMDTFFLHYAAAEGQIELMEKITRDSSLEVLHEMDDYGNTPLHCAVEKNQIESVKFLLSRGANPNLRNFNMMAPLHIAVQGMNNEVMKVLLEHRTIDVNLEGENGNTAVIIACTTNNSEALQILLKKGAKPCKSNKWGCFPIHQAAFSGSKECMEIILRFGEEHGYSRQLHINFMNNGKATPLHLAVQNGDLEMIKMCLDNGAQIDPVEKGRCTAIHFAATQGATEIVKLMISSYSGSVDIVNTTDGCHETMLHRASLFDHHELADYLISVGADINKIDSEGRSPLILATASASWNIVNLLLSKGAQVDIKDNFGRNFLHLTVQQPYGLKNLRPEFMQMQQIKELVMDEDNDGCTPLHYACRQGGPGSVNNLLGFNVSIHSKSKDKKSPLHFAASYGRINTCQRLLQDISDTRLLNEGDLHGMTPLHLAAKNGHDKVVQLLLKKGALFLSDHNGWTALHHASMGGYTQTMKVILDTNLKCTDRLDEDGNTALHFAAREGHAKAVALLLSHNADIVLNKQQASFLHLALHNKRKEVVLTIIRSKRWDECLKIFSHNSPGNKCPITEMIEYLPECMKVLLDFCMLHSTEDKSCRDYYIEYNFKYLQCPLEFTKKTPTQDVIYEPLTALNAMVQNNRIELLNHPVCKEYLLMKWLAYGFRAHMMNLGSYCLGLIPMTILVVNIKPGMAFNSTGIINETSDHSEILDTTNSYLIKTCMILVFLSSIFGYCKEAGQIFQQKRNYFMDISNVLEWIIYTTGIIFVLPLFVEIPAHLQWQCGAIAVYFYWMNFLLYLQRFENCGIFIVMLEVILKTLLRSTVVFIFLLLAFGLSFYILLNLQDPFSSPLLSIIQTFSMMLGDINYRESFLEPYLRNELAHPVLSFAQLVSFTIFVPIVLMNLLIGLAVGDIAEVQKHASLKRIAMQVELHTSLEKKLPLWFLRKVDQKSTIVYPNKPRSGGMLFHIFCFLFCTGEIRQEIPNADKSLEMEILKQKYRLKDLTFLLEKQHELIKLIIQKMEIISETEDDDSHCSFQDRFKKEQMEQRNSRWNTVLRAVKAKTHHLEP
T3 sequence (Q704Y3 whole entry): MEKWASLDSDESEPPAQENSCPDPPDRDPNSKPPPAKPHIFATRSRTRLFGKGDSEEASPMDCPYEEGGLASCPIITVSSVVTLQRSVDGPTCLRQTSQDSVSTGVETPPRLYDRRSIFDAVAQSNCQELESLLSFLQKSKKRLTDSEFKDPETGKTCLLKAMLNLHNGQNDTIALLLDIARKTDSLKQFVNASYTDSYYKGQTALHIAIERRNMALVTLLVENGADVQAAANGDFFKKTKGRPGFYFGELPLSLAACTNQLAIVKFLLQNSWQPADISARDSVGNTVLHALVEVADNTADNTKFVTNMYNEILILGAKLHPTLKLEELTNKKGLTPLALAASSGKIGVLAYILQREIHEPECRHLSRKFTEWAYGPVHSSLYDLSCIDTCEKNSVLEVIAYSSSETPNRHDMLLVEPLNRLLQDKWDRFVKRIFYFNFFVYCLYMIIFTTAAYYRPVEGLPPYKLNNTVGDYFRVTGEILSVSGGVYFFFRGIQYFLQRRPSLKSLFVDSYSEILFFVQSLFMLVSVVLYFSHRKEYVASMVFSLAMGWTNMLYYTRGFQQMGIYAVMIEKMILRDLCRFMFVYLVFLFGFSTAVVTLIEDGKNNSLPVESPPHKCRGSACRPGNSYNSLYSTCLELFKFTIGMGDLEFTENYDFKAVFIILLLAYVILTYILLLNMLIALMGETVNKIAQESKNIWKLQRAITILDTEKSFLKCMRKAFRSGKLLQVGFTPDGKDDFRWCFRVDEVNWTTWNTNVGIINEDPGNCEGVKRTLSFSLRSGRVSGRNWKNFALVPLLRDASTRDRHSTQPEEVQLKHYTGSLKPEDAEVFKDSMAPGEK
Sequence of TRPV1 (Rattus norvegicus, UniProt O35433) (O35433 whole entry): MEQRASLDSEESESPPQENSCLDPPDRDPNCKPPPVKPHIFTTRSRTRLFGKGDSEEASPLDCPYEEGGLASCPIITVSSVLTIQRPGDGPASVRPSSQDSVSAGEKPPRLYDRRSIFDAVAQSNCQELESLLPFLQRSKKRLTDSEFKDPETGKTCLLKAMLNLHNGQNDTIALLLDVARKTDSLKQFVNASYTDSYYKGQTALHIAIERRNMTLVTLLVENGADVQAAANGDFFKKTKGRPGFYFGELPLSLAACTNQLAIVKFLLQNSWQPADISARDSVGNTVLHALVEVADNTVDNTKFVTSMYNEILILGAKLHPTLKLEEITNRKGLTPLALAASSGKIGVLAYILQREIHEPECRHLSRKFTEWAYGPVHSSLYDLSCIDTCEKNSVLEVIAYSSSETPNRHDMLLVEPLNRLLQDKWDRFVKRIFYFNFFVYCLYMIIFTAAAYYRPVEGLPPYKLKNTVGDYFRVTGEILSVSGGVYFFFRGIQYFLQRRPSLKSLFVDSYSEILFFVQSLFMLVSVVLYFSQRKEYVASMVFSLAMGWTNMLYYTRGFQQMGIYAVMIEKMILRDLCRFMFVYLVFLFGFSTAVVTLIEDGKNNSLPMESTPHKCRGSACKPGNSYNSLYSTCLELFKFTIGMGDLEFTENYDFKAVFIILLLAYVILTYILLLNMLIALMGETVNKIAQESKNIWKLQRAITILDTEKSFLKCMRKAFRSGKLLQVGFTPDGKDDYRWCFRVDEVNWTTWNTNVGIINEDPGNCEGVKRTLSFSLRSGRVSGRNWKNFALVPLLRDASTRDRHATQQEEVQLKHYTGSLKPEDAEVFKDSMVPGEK

CC[C@H](C)C(=O)O[C@H]1C[C@@H](C)C=C2C=C[C@H](C)[C@H](CC[C@@H]3C[C@@H](O)CC(=O)O3)[C@H]21 [Lovastatin]
% Remaining at T120 (Mouse plasma stability): 0.2% | T1/2 (Mouse plasma stability): 12 min

CCCCCCCCC(=O)NCc1ccc(N)c(OC)c1 [N-[(4-amino-3-methoxyphenyl)methyl]-Nonanamide]
EC50 (TRPV1 [1]; as reported in literature): > 10 µM

CC(C)[N+](C)(CCOC(=O)C1c2ccccc2Oc2ccccc21)C(C)C [Propantheline]
% Remaining at T120 (Mouse plasma stability): 20% | T1/2 (Mouse plasma stability): 55 min

C=C(C)[C@]12C[C@@H](C)[C@@]34O[C@](Cc5ccccc5)(O[C@@H]1[C@@H]3C=C(COC(=O)Cc1ccc(O)c(OC)c1)C[C@]1(O)C(=O)C(C)=C[C@@H]41)O2 [Resiniferatoxin (RTX), Resiniferatoxin]
solubility in water [2]: insoluble in water

COc1cc(CNC(=O)CCCC/C=C/C(C)C)ccc1NC(=O)CCCC/C=C/C(C)C [YB-1]
inhibition of OVCAR-8 cell invasion (OVCAR-8 cell invasion; 24 h): dose-dependently inhibited | potency in inhibiting cell invasion compared to capsaicin (OVCAR-8 cell invasion; OVCAR-8): ~3 fold | IC50 (NCI-H460): 11 µM | potency in growth inhibition compared to capsaicin (NCI-H460; NCI-H460 cell line): 18 fold | potency in inhibiting Src protein activation compared to capsaicin [3]: at least 3 fold | cellular Src kinase phosphorylation levels [3, 9]: time-dependently reduced the cellular Src kinase phosphorylation levels | inhibition of MDA-MB-231 cell invasion (MDA-MB-231 cell invasion): dose-dependently inhibited | potency in inhibiting cell invasion compared to capsaicin (MDA-MB-231 cell invasion; MDA-MB-231): about 4 fold | potency in inhibiting Src protein activation compared to capsaicin [4]: at least 3 fold | cellular Src kinase phosphorylation levels [4, 9]: time-dependently reduced the cellular Src kinase phosphorylation levels | potency in inhibiting Src protein activation compared to capsaicin [5]: at least 3 fold | cellular Src kinase phosphorylation levels [5, 9]: time-dependently reduced the cellular Src kinase phosphorylation levels | EC50 (human TRPV3): > 10 µM | inhibition of NCI-H460 cell invasion (NCI-H460 cell invasion): dose-dependently inhibited | potency in inhibiting cell invasion compared to capsaicin (NCI-H460 cell invasion; NCI-H460): ~10 fold | EC50 (human TRPA1): > 10 µM | average body weight loss (OVCAR-8 ovarian tumor; [10]): 7% | less tumor burden compared to vehicle group (average radiant efficiency, IVIS) (OVCAR-8 ovarian tumor; [10]): 40% | tumor burden in vivo (OVCAR-8 ovarian tumor; FIG. 16): reduces tumor burden in vivo | IC50 (MDA-MB-231): 38 µM | potency in growth inhibition compared to capsaicin (MDA-MB-231; MDA-MB-231 cell line): 10 fold | IC50 (OVCAR-8): 38 µM | potency in growth inhibition compared to capsaicin (OVCAR-8; OVACR-8 cell line): 6 fold

COc1cc(CNC(=O)CCCC/C=C/C(C)C)ccc1NC(C)=O [YB-9]
IC50 (NCI-H460): 65 ± 15 µM | inhibition of MDA-MB-231 cell invasion (MDA-MB-231 cell invasion): dose-dependently inhibited | cellular Src kinase phosphorylation levels ([5]; at about 40% of IC50 concentration from cell growth inhibition assay, 4 h): significantly reduced the cellular Src kinase phosphorylation levels | EC50 (human TRPV3): > 10 µM | inhibition of NCI-H460 cell invasion (NCI-H460 cell invasion): dose-dependently inhibited the NCI-H460 cell invasion from 15 μM to 60 μM | EC50 (human TRPA1): > 10 µM | IC50 (MDA-MB-231): 75 ± 20 µM | IC50 (OVCAR-8): 34 ± 12 µM

COc1cc(CC(=O)N/C=C/c2ccc(C(F)(F)F)cc2)ccc1O [YB-11]
IC50 (NCI-H460): 87 ± 10 µM | TRPV1-sensitive neurons showing desensitization (TRPV1 [6]; first treatment 0.5 μM): 67% | area under the curve of the Ca2+ signal of the second (capsaicin) application (TRPV1 [6]; [11]): statistically significant reduction; also recorded: significantly reduced | max Ca2+ signal of the second (capsaicin) application (TRPV1 [6]; [11]): statistically significant reduction; also recorded: significantly reduced | inhibition of MDA-MB-231 cell invasion (MDA-MB-231 cell invasion): dose-dependently inhibited | MPP [7]: 0.101 mg/mL | EC50 (human TRPV3): > 10 µM | EC50 (human TRPA1): > 10 µM | IC50 (MDA-MB-231): 129 ± 21 µM | animal death and sedation in formalin test [8]: No mice treated with YB-16, YB-11 or YB-2 died or experienced sedative reaction | reduction of formalin first phase behavior ([8]; 10 g, 2 hr prior to formalin): 36% | EC50 (human TRPV1): < 0.1 µM and 0.012 to 0.048 µM and 0.012 µM | IC50 (OVCAR-8): 65 µM

COc1cc(CN(C)C(=O)CCCCC=CC(C)C)ccc1O [capsaicin analog 3d]
EC50 (TRPV1 [1]): > 100 µM
